Assay [1] concerns MCF-7 inducible ALT cells. Description: Mouse xenograft model, MCF7-ALT tumors. The class given is in vivo, NOD/SCID mice. The conditions noted are these: day 17; start volume 200 mm3; Palbociclib 100 mg/kg daily gavage, doxycycline 0.1 mg/ml in drinking water. As to the method: FIG. 14: ALT slows tumor growth in animals, and ALT and PD dual treatment causes tumor regression. MCF-7 inducible ALT cells were injected into the 4th mammary gland of NOD/SCID mice. Tumors were allowed to develop to a volume of 200 mm3, before treatment. Vehicle: daily gavage with PBS. PD: Daily gavage of Palbociclib 100 mg/kg. Doxy: 0.1 mg/ml doxycycline added to the drinking water to allow continuous uptake and induction of ALT in the human cancer cells. Doxy+PD: Daily gavage of Palbociclib 100 mg/kg and 0.1 mg/ml doxycycline added to the drinking water. Vehicle treated animals rapidly progressed and by 17 days, tumor volumes were >3000 mm PD treatment slowed down tumor growth but by day 17, tumors were >2500. […] However, dual ALT and PD (doxy/PD) treatment, caused tumor regression by […] (e.g., from 200 mm3 down to 0-40 mm3), by day 5, which was durable up to day 19.
NP-ALT was added to cell media in the absence of fetal bovine serum for 6 hours. This media was removed and replaced with FBS+media, and cells were allowed to recover for 2 days, at which time, cell counts were determined. Counts were standardized to the proliferation seen in the NO FBS untreated control. • Expression in vivo. […] Tumor volume was monitored every other day using digital calipers. […] Doxy+PD: Daily gavage of Palbociclib 100 mg/kg and 0.1 mg/ml doxycycline added to the drinking water. • Quantitative RT-PCR. […]

The next assay relates to MCF10A. Description: PD0332991 inhibitor treatment, proliferation by cell counting. Conditions: Homo sapiens, MCF-10A, 48 h post treatment, read-out: IC50 (concentration needed to inhibit proliferation by 50%). Type of assay: cell-based. Here is the method: (§1) Immunoprecipitation with IgG served as a negative control (FIG. 6C). DNA with Hoechst stain is in blue and is merged with red and green staining (FIG. 6D). (FIG. 6E) Cdk4 was immunoprecipitated from the lysates and recombinant Rb was added to perform an in vitro kinase assay in the presence of ATP Immunoblot analysis was performed to probe for Rb, Ser780 pRb and cdk4 Immunoprecipitation with IgG served as a negative control. (FIG. 6F) Cells were treated with different concentrations of PD0332291 or DMSO as a control at Day 2. Total cell numbers were analyzed by counting 24 and 48 hours post treatment to determine IC50 values. (FIG. 6G) Cells were treated with different concentration of PD032291 or DMSO and analyzed by PI staining and FACS analysis. % G1 content is plotted.
(§2) The PCR fragments were ligated to the T7pGEMEX human His-p27 or T7pGEMEX human Flag-p27 plasmid for expression in E. coli. Mutants Y74F, Y88F, and Y88/89F were previously described (12). Flag-tagged p27 mutants were purified by Flag-immunoprecipitation with Flag antibody (M-2, Sigma F-18C9) and eluted with Flag peptide (Sigma F-4799) according to manufacturer's protocol. His-tagged p27 mutants were purified by FPLC via his-trap affinity chromatography (His-Trap HP, GE Healthcare 71-5247-01). The affinity column was stripped according to manufacturer's protocol, then washed with 5 column volumes of 100 mM CoCl2. The crude material was applied with a loading buffer consisting of 6 M urea, 500 mM NaCl, 50 mM Tris-HCl, pH 7.5 and 20% glycerol. The material was washed with 500 mM NaCl, 50 mM Tris-HCl, pH 7.5 and 10% glycerol. The purified material was eluted with 500 mM imidazole,20 mM Hepes pH 7.4 and 1 M KCl. The protein was then dialyzed overnight in a solution of 25 mM Hepes pH 7.7, 150 mM NaCl, 5 mM MgCl2 and 0.05% NP40.

A further assay concerns MDA MB-468 cells. The assay is described as above. Conditions: Homo sapiens, 48 h post treatment, read-out: IC50 (concentration needed to inhibit proliferation by 50%). The class given is cell-based. Here is the method:
as §1, §2

The test system of assay [2] is MCF7 WT Brk expressing cells. Described as above. Conditions: Homo sapiens, 48 h post treatment, read-out: IC50 (concentration needed to inhibit proliferation by 50%). Type of assay: cell-based. As to the method:
as §1, §2

Another assay has as its system Mock MCF7 cells. Described as above. Type of assay: cell-based. The conditions noted are these: Homo sapiens, 48 h post treatment, read-out: IC50 (concentration needed to inhibit proliferation by 50%). Here is the method:
as §1, §2

This note sets out measurements from patent publication US11260100B2, “Compositions targeting the interaction domain between p27Kip1 and Brk and methods of use thereof to inhibit p27 Y phosphorylation and cdk4 activity” (The Research Foundation for the State University of New York, priority 2014, dated 2022).

Where only a bound is given, the exact number is not on record here.

Turning to `CC(=O)c1c(C)c2cnc(Nc3ccc(N4CCNCC4)cn3)nc2n(C2CCCC2)c1=O` [PD0332991], the tumor volume in assay [1] is over 2500 mm3. The IC50 in the assay with MCF10A was 110 nM; in the assay with MDA MB-468 cells it was 350 nM; in assay [2], over 600 nM; with Mock MCF7 cells, 150 nM.
